Experimental data: ChEMBL document CHEMBL1201862, “PubChem BioAssay data set” (2004)
Activity calls are given as the source filed them.

Legend:
A-375 [1] = experiment: A375 melanoma cell viability reduction, dose response, counter-screen for MITF modulator project, cherry-pick samples, set 2 (AID 540335); assay type: functional, cell-based; conditions: Homo sapiens
[2] = PAX5 activity inhibitors, dose response, selectivity assay for PAX8 inhibitor project, cell-based, plate reader, dry powder samples (AID 743047); assay type: functional;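 note: HEK293 cells carrying a Pax5 driven CD19 promoter luciferase reporter; potency of inhibitors that lower reporter luminescence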
[3] = cytotoxicity in COV434 cells, dose response, cytotoxicity control for PAX8 inhibitor project, cell-based, plate reader, dry powder, SA7 (AID 743145); assay type: functional
[4] = PAX2 cell-based inhibition, dose response, selectivity assay for PAX8 inhibitor project, plate reader, dry powder samples (AID 743048); assay type: functional;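 note: HEK293 cells carrying a WT1 promoter luciferase reporter driven by expressed Pax2; potency is for inhibition of Pax2 driven reporter signal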
Protein RecA = target: T1, Protein RecA (Mycobacterium tuberculosis, UniProt P9WHJ3); experiment: Fluorescence Cell-Free Homogeneous Dose Retest to Identify Inhibitors of RecA-Intein Splicing Activity. [Related pubchem assays (depositor defined):AID2097, AID2223, AID489010, AID492950]; assay type: functional
T1 sequence (P9WHJ3 whole entry): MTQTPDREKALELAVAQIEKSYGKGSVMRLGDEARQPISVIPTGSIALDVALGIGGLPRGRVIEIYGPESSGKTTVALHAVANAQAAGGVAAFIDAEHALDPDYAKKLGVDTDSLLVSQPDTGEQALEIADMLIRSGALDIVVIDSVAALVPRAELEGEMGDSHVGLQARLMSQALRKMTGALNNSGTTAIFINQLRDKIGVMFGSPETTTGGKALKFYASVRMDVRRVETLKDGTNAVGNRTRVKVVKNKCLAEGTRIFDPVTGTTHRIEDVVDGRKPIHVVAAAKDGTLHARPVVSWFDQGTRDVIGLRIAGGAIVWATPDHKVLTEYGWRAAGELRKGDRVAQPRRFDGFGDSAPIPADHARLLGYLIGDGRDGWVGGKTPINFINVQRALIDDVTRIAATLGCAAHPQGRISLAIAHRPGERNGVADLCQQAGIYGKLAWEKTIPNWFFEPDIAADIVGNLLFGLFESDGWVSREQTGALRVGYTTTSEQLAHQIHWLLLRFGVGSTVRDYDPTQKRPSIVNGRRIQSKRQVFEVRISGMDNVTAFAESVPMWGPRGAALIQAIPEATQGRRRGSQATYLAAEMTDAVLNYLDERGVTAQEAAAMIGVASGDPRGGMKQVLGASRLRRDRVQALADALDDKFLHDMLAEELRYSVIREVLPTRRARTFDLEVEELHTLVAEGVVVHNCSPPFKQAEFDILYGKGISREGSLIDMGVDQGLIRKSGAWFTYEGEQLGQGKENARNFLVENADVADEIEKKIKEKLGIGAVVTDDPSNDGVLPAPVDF

[5] = cytotoxicity dependent on PAX8, dose response, cell-based, plate reader, dry powder (AID 743049); assay type: functional
H4 = experiment: Luminescence Cell-Based Dose Response HTS to Identify Activators of 5'UTR Stem-Loop Driven Prion Protein mRNA Translation in H4 Neuroglioblastoma Cells. [Related pubchem assays: 1829 (Project Summary), 1814 (Primary HTS)]; assay type: functional; conditions: Homo sapiens
[6] = Luminescence Cell-Based Dose Response HTS to Identify Activators of Luciferase Translation or Activity in H4 […] Cells. [Related pubchem assays: 1829 (Project Summary), 1814 (Primary HTS)]; assay type: functional
[7] = IGROV1 ovarian cancer cell cytotoxicity, dose response, PAX8 inhibitor project, plate reader, dry powder samples (AID 743043); assay type: functional, cell-based; conditions: IGROV-1
[8] = cytotoxicity in HPDE-C7 cells, cell-based, fluorescence, HTS (AID 430); assay type: functional; conditions: Homo sapiens
[9] = cytotoxicity in COV362 ovarian cancer cells, dose response, cytotoxicity control for PAX8 inhibitor project, cell-based, plate reader, dry powder, SA12 (AID 743144); assay type: functional
[10] = cytotoxicity in OV-90 ovarian cancer cells, dose response, PAX8 inhibitor project, cell-based, plate reader, dry powder, SA8 (AID 743149); assay type: functional
A-375 [11] = experiment: MITF: Counter assay: A375 proliferation Measured in Cell-Based System Using Plate Reader - 2084-03_Inhibitor_Dose_DryPowder_Activity. [Related pubchem assays (depositor defined):AID488944]; assay type: functional; conditions: Homo sapiens
[12] = target: T2, Microphthalmia-associated transcription factor (Homo sapiens, UniProt O75030); experiment: TRPM1 promoter luciferase signal decrease, dose response, MITF inhibitor project, cell-based, SK-MEL-5, cherry-picked, set 3 (AID 493073); assay type: functional
T2 sequence (O75030 whole entry): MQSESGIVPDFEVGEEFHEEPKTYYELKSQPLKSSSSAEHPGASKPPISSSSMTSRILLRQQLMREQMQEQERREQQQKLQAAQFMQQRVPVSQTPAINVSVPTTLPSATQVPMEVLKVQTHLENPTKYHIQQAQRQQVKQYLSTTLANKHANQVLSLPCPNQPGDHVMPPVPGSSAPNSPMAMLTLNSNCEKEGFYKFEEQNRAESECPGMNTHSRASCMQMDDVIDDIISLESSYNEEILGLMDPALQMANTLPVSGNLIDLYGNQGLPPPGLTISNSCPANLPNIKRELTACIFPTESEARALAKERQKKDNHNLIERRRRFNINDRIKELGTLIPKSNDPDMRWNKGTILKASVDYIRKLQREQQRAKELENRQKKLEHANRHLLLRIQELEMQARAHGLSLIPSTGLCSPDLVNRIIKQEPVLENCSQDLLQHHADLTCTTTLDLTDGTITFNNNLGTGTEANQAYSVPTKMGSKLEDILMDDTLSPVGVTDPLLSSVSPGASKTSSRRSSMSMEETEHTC

[13] = cytotoxicity in OVCAR4 cells, dose response, cytotoxicity control for PAX8 inhibitor project, cell-based, plate reader, dry powder, SA11 (AID 743150); assay type: functional; conditions: OVCAR-4
[14] = cytotoxicity in KRAS-transformed pancreatic duct cells, primary screen, cell-based, fluorescence, HTS (AID 431); assay type: functional; conditions: Homo sapiens;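 note: cell line used: HPDE-C7K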
[15] = A2780 ovarian cancer cell cytotoxicity, dose response, cytotoxicity control, plate reader, dry powder samples (AID 743046); assay type: functional, cell-based
[16] = target: T3, Replicative DNA helicase DnaB (Mycobacterium tuberculosis, UniProt P9WMR3); experiment: DnaB intein splicing inhibitors, dose response, biochemical, cell-free fluorescence (AID 449749); assay type: functional
T3 sequence (P9WMR3 whole entry): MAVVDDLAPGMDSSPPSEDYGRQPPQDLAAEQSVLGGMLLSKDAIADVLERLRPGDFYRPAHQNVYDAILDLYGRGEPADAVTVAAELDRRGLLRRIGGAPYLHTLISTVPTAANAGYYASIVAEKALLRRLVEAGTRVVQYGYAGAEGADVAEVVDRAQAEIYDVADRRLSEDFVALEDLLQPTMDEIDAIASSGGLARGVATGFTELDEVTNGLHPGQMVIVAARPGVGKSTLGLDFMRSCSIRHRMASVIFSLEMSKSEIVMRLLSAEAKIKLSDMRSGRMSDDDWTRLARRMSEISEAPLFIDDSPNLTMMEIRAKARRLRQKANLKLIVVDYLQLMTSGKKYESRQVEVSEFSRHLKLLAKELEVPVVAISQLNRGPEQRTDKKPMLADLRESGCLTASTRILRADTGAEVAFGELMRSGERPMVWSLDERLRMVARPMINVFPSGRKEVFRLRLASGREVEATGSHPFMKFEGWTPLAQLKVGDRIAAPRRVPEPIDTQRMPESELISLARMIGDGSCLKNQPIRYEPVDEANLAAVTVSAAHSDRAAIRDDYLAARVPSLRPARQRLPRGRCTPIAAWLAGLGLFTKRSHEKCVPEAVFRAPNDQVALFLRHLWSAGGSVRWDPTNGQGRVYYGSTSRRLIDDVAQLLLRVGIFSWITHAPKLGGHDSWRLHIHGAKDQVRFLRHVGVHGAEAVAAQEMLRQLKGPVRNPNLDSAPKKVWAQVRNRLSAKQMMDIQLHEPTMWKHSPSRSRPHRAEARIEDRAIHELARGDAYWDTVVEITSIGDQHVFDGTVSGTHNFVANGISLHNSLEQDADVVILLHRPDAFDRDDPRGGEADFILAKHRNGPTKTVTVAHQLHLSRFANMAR

Paired box protein Pax-8 = Paired box protein Pax-8 (Homo sapiens, UniProt Q06710); experiment: inhibitors of PAX8-driven TPO luciferase reporter, dose response, RMG-I cells, cherry-pick (AID 687027); assay type: functional, cell-based;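 note: luciferase reporter driven by Pax8 target thyroperoxidase promoter measured by SteadyGlo luminescence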
[17] = IOSE-T80 ovarian epithelial cell cytotoxicity, dose response, cytotoxicity control for PAX8 inhibitor project, plate reader, dry powder samples (AID 743045); assay type: functional, cell-based
[18] = cytotoxicity in HMLE control line with eGFP shRNA, dose response, counter-screen for HMLE_sh_ECad selective toxicity project, cell-based, HMLE_sh_eGFP, luminescence (AID 463074); assay type: functional, Homo sapiens;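 note: HMLE human mammary epithelial cells expressing control shRNA against eGFP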
[19] = Luminescence Cell-Based Dose Retest to Confirm Inhibitors of Cancer Stem Cells. [Related pubchem assays (depositor defined):AID2717, AID2721]; assay type: functional; conditions: Homo sapiens
HeLa = experiment: HeLa cell cytotoxicity, dose response, cytotoxicity control for MITF activator project, CellTiter-Glo luminescence, cherry-pick samples (AID 540259); assay type: functional, cell-based; conditions: Homo sapiens
Hexokinase-1 = target: T4, Hexokinase-1 (Homo sapiens, UniProt P19367); experiment: HK1 enzyme inhibition by HKDC1 hits, SAR follow-up, selectivity assay for HKDC1 inhibitor project, biochemical, set 2, resazurin fluorescence coupled readout (AID 588356); assay type: functional
T4 sequence (P19367 whole entry): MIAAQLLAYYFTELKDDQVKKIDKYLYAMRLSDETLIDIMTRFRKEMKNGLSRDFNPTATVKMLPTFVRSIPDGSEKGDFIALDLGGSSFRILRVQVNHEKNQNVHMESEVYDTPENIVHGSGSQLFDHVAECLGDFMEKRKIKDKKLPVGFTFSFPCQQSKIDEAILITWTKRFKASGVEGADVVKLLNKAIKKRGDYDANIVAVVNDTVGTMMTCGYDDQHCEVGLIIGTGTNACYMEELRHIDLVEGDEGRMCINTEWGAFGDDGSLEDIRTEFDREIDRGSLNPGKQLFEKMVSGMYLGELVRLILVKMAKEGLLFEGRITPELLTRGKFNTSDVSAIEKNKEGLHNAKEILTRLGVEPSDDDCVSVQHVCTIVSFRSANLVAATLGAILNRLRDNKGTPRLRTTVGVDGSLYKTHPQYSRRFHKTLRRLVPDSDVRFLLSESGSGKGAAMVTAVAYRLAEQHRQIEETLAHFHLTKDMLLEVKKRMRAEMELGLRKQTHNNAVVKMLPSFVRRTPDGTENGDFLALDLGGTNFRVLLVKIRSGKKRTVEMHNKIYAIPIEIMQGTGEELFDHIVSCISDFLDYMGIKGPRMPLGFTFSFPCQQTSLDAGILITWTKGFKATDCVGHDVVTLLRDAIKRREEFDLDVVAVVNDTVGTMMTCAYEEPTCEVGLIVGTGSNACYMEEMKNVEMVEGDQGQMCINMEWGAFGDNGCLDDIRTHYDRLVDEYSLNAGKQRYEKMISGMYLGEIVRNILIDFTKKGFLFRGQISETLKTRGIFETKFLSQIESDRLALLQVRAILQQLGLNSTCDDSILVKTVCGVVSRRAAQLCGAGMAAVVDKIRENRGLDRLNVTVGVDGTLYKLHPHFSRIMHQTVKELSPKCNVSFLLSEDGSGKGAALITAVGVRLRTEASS

Hexokinase HKDC1 = target: T5, Hexokinase HKDC1 (Homo sapiens, UniProt Q2TB90); experiment: HKDC1 hexokinase inhibitors, SAR follow-up, biochemical, set 2 (AID 588355); assay type: functional
T5 sequence (Q2TB90 whole entry): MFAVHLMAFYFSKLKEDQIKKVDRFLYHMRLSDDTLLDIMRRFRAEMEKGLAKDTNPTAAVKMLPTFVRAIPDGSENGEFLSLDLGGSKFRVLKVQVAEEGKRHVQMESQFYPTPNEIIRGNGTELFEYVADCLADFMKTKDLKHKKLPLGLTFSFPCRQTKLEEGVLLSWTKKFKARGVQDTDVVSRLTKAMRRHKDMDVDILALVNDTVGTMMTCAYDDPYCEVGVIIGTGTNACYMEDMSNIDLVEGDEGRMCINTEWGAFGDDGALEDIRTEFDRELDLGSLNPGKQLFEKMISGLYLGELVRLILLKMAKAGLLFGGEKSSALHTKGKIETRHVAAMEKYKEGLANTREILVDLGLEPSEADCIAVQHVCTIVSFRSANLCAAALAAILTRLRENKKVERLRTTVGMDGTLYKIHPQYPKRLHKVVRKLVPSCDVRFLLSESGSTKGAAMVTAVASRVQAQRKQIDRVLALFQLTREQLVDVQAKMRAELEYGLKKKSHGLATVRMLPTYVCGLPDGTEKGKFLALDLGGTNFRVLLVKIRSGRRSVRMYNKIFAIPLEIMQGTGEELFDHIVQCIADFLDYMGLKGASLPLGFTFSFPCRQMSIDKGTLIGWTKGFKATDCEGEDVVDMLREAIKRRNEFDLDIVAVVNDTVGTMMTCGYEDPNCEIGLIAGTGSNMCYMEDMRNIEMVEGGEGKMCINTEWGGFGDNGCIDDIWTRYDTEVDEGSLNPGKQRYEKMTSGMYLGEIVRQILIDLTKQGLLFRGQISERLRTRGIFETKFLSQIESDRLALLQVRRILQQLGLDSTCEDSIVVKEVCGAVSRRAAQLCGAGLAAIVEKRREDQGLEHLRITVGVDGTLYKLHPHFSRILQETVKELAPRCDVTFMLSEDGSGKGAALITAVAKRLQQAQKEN

Paired box protein Pax-8, sequence (Q06710 whole entry): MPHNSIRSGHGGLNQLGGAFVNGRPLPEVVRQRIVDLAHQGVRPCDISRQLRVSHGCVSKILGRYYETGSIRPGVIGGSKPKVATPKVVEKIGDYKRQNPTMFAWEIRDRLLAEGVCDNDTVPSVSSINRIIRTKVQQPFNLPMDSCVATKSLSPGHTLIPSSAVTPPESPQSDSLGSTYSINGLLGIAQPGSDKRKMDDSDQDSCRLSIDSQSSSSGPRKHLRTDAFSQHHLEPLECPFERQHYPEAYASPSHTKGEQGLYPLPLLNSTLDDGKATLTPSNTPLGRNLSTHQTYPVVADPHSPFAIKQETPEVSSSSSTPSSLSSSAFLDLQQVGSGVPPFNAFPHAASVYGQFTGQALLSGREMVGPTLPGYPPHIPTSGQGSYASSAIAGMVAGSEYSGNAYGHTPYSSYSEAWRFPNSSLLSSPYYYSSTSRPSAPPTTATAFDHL

Question: What does the source list for Cn1nnnc1Sc1ncnc2scc(-c3ccc(F)cc3)c12?
Answer: AC50 (A-375 [1]): > 35 µM (active); AC50 [2]: 36.4 µM (active); AC50 [3]: 37.1 µM (active); AC50 [4]: 28.6 µM (active); EC50 (Protein RecA): 11.2 µM (active); AC50 [5]: 26.6 µM (active); EC50 (H4): > 120 µM (not active); EC50 [6]: 0.116 µM (active); AC50 [7]: 35.6 µM (active); EC50 [8]: 5.23 µM (active); AC50 [9]: 48 µM (active); AC50 [10]: 44.6 µM (active); AC50 (A-375 [11]): > 35 µM (active); AC50 [12]: 8.1 µM (active); AC50 [13]: 39.7 µM (active); EC50 [14]: 5.32 µM (active); AC50 [15]: 29.8 µM (active); AC50 [16]: 93 µM (active); AC50 (Paired box protein Pax-8): 4.15 µM (active); AC50 [17]: 68.6 µM (active)

Question: With O=C(NC(=S)Nc1ccc2oc(=O)ccc2c1)c1ccc(-c2cccc(Cl)c2Cl)o1 as the compound, how does the AC50 [18] read?
Answer: 39.2 µM (active)

Question: And the AC50 [19]?
Answer: 2.77 µM (active)

Question: With Nc1nc(-c2cc(-c3ccccc3)no2)cs1 as the compound, how does the AC50 (HeLa) read?
Answer: 144 µM (active)

Question: Which results are given for COc1cc2c(cc1OC)-c1cc(NCc3ccccc3F)nc(=O)n1CC2?
Answer: IC50 (Hexokinase-1): > 80 µM (inactive); IC50 (Hexokinase HKDC1): > 80 µM (inactive)
